Measurements published in patent US12441727B2, “Tricyclic compounds as inhibitors of KRAS” (Incyte Corporation, priority 2021, dated 2025).
Read-outs that look alike come from different tables or passages of the source.

Legend:
KRAS_G12C pERK = test: Cellular pERK HTRF assay (KRAS_G12C pERK assay); assay type: cell-based, human; conditions: KRAS G12C cells, 4 hours incubation with compound, read-out: G12C_pERK
Protocol: MIA PaCa-2 (KRAS G12C; ATCC® CRL-1420), NCI-H358 (KRAS G12C; ATCC® CRL-5807), A427 (KRAS G12D; ATCC® HTB53), HPAFII (KRAS G12D; ATCC® CRL-1997), YAPC (KRAS G12V; DSMZ ACC382), SW480 (KRAS G12V; ATCC® CRL-228) and NCI-H838 (KRAS WT; ATCC® CRL-5844) cells are purchased from ATCC and maintained in RPMI 1640 media supplemented with 10% FBS (Gibco/Life Technologies). The cells are plated at 5000 cells per well (8 uL) into Greiner 384-well low volume, flat-bottom, and tissue culture treated white plates and incubated overnight at […], 5% CO2. The next morning, test compound stock solutions are diluted in media at 3× the final concentration and 4 uL are added to the cells, with a final concentration of 0.1% of DMSO. The cells are incubated with the test compounds for 4 hours (G12C and G12V) or 2 hrs (G12D) at 37° C., 5% CO2. Four uL of 4× lysis buffer with blocking reagent (Cisbio) are added to each well and plates are rotated gently (300 rpm) for 30 minutes at room temperature. Four uL per well of Cisbio anti Phospho-ERK 1/2 d2 is mixed with anti Phospho-ERK 1/2 Cryptate (1:1), and added to each well, incubated overnight in the dark at room temperature. Plates are read on the Pherastar plate reader at 665 nm and 620 nm wavelengths. Data are analyzed in Genedata Screener using SmartFit for IC50 values.

KRAS G12C = KRAS G12C (Homo sapiens, UniProt P01116, G12C); test: GDP-GTP exchange assay (KRAS_G12C exchange assay); assay type: biochemical; conditions: bodipy-loaded KRAS G12C 2.5 nM, SOS1 150 nM, 2 hours pre-incubation with inhibitor; read-out: G12C_exchange
Protocol: The inhibitor potency of the exemplified compounds was determined in a fluorescence based guanine nucleotide exchange assay, which measures the exchange of bodipy-GDP (fluorescently labeled GDP) for GppNHp (Non-hydrolyzable GTP analog) to generate the active state of KRAS in the presence of SOS1 (guanine nucleotide exchange factor). Inhibitors were serially diluted in DMSO and a volume of 0.1 μL was transferred to the wells of a black low volume 384-well plate. 5 μL/well volume of bodipy-loaded KRAS G12C diluted to 5 nM in assay buffer (25 mM Hepes pH 7.5, 50 mM NaCl, 10 mM MgCl2 and 0.01% Brij-35) was added to the plate and pre-incubated with inhibitor for 2 hours at ambient temperature. Appropriate controls (enzyme with no inhibitor or with a G12C inhibitor (AMG-510)) were included on the plate. The exchange was initiated by the addition of a 5 μL/well volume containing 1 mM GppNHp and 300 nM SOS1 in assay buffer. The 10 μL/well reaction concentration of the bodipy-loaded KRAS G12C, GppNHp, and SOS1 were 2.5 nM, 500 uM, and 150 nM, respectively. The reaction plates were incubated at ambient temperature for 2 hours, a time estimated for complete GDP-GTP exchange in the absence of inhibitor. For the KRAS G12D and G12V mutants, similar guanine nucleotide exchange assays were used with 2.5 nM as final concentration for the bodipy loaded KRAS proteins and with 4 hours and 3 hours incubation after adding GppNHp-SOS1 mixture for G12D and G12V respectively. A cyclic peptide described to selectively bind G12D mutant (Sakamoto et al., BBRC 484.3 (2017), 605-611) or internal compounds with confirmed binding were used as positive controls in the assay plates. Fluorescence intensities were measured on a PheraStar plate reader instrument (BMG Labtech) with excitation at 485 nm and emission at 520 nm.
Either GraphPad prism or Genedata Screener SmartFit was used to analyze the data. The IC50 values were derived by fitting the data to a four parameter logistic equation producing a sigmoidal dose-response curve with a variable Hill coefficient.

[1] = test system: KRAS_G12C pERK in MIA PaCa-2 cells; test: Whole Blood pERK1/2 HTRF assay (KRAS_G12C WB pERK assay); assay type: cell-based, human; conditions: Homo sapiens, compound in whole blood, 4 hours, read-out: G12C_WB_pERK
Protocol: MIA PaCa-2 cells (KRAS G12C; ATCC® CRL-1420), HPAF-II (KRAS G12D; ATCC® CRL-1997) and YAPC (KRAS G12V; DSMZ ACC382) are maintained in RPMI 1640 with 10% FBS (Gibco/Life Technologies). For MIA PaCa-2 assay, cells are seeded into 96 well tissue culture plates (Corning #3596) at 25000 cells per well in 100 uL media and cultured for 2 days at 37° C., 5% CO2 before the assay. For HPAF-II and YAPC assay, cells are seeded in 96 well tissue culture plates at 50000 cells per well in 100 uL media and cultured for 1 day before the assay. Whole Blood are added to the 1 uL dots of compounds (prepared in DMSO) in 96 well plates and mixed gently by pipetting up and down so that the concentration of the compound in blood is 1× of desired concentration, in 0.5% DMSO. The media is aspirated from the cells and 50 uL per well of whole blood with test compound is added and incubated for 4 hours for MIA PaCa and YAPC assay; or 2 hours for HPAF-II assay, respectively at 37° C., 5% CO2. After dumping the blood, the plates are gently washed twice by adding PBS to the side of the wells and dumping the PBS from the plate onto a paper towel, tapping the plate to drain well. Fifty ul/well of 1× lysis buffer #1 (Cisbio) with blocking reagent (Cisbio) and Benzonase nuclease (Sigma Cat #E1014-5KU, 1:10000 final concentration) is then added and incubated at room temperature for 30 minutes with shaking (250 rpm). Following lysis, 16 uL of lysate is transferred into 384-well Greiner small volume white plate using an Assist Plus (Integra Biosciences, NH). Four uL of 1:1 mixture of anti Phospho-ERK 1/2 d2 and anti Phospho-ERK 1/2 Cryptate (Cisbio) is added to the wells using the Assist Plus and incubated at room temperature overnight in the dark. Plates are read on the Pherastar plate reader at 665 nm and 620 nm wavelengths. Data are analyzed in Genedata Screener using SmartFit for IC50 values.

Sequence of KRAS G12C (P01116 1-188 isoform P01116-2 G12C): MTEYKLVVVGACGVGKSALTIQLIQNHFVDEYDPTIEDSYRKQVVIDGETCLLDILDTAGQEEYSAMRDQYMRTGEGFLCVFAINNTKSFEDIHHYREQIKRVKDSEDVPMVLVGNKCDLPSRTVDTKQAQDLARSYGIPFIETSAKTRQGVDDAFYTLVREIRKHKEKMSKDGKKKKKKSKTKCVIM

| Structure (SMILES) | IC50 (KRAS_G12C pERK) [nM] | IC50 (KRAS G12C) [nM] | IC50 (KRAS_G12C pERK; Homo sapiens, 4 h) [nM] | IC50 [1] [nM] |
| --- | --- | --- | --- | --- |
| CN(C)C1(C)CN(c2nc3c(F)c(-c4ccc(F)c5cccnc45)c(C(F)(F)F)cc3c3c2nnn3[C@H]2CCN(C(=O)/C=C/CF)[C@H](CC#N)C2)C1 (single isomer, unassigned) [Example 1b] | 50 to 100 | ≤ 50 |  |  |
| COc1c(C)cccc1-c1c(C(F)(F)F)cc2c(nc(N3CC(C)(N(C)C)C3)c3nnn([C@H]4CCN(C(=O)/C=C/CF)[C@H](CC#N)C4)c32)c1F (single isomer, unassigned) [Example 2b] | 50 to 100 | ≤ 50 |  |  |
| COc1c(Cl)cccc1-c1c(C(F)(F)F)cc2c(nc(N3CC(C)(N(C)C)C3)c3nnn([C@H]4CCN(C(=O)/C=C/CF)[C@H](CC#N)C4)c32)c1F (single isomer, unassigned) [Example 3b] | ≤ 50 | ≤ 50 |  |  |
| C[C@H](Oc1nc2c(F)c(-c3ccc(F)c4cccnc34)c(C(F)(F)F)cc2c2c1nnn2[C@H]1CCN(C(=O)/C=C/CF)[C@H](CC#N)C1)[C@@H]1CCCN1C (single isomer, unassigned) [Example 4b] | ≤ 50 | ≤ 50 |  |  |
| C=CC(=O)N1CCC(n2nnc3c(O[C@@H](C)[C@@H]4CCCN4C)nc4c(F)c(-c5ccc(F)c6cccnc56)c(C(F)(F)F)cc4c32)CC1 (single isomer, unassigned) [Example 5b] | 50 to 100 | ≤ 50 |  |  |
| C=CC(=O)N1CCC(n2nnc3c(O[C@@H](C)[C@@H]4CCCN4C)nc4c(F)c(-c5cccc6cccc(C#N)c56)c(C)cc4c32)CC1 (single isomer, unassigned) [Example 11a] |  | ≤ 50 | 100 to 1000 |  |
| C=CC(=O)N1CC[C@H](n2nnc3c(O[C@@H](C)[C@@H]4CCCN4C)nc4c(F)c(-c5cccc6cccc(C#N)c56)c(C)cc4c32)C[C@H]1C (single isomer, unassigned) [Example 14a] |  | 50 to 100 |  |  |
| C=C(F)C(=O)N1CC[C@H](n2nnc3c(N4CC(N(C)CC)C4)nc4c(F)c(-c5c(C)c(C)cc6[nH]ncc56)c(C)cc4c32)C[C@H]1CC#N (single isomer, unassigned) [Example 15b] |  | 100 to 1000 |  |  |
| Cc1cc2c(nc(O[C@@H](C)[C@@H]3CCCN3C)c3nnn(C4CCN(C(=O)/C=C/CF)CC4)c32)c(F)c1-c1cccc2cccc(C#N)c12 (single isomer, unassigned) [Example 16a] |  | ≤ 50 | 100 to 1000 |  |
| C=C(F)C(=O)N1CC[C@H](n2nnc3c(N4CC(C)(N(C)C)C4)nc4c(F)c(-c5cccc6cccc(C#N)c56)c(C)cc4c32)C[C@H]1CC#N (single isomer, unassigned) [Example 17a] |  | ≤ 50 | ≤ 50 | 50 to 100 |
| C=C(F)C(=O)N1CC[C@H](n2nnc3c(N4CC(C)(N(C)C)C4)nc4c(F)c(-c5cccc6cccc(C#N)c56)c(C)cc4c32)C[C@H]1CC#N (single isomer, unassigned) [Example 17b] |  | 100 to 1000 |  |  |
| COC/C=C/C(=O)N1CC[C@H](n2nnc3c(N4CC(C)(N(C)C)C4)nc4c(Cl)c(-c5ccc(F)c6cccnc56)c(Cl)cc4c32)C[C@H]1CC#N (single isomer, unassigned) [Example 18b] | 100 to 1000 | ≤ 50 |  |  |
| CN(C)C1(C)CN(c2nc3c(Cl)c(-c4ccc(F)c5cccnc45)c(Cl)cc3c3c2nnn3[C@H]2CCN(C(=O)/C=C/CF)[C@H](CC#N)C2)C1 (single isomer, unassigned) [Example 19b] | ≤ 50 | ≤ 50 |  |  |
| C=C(F)C(=O)N1CC[C@H](n2nnc3c(O[C@@H](C)[C@@H]4CCCN4C)nc4c(F)c(-c5c(C)ncc6ccccc56)c(C)cc4c32)C[C@H]1CC#N (single isomer, unassigned) [Example 23a] |  | 50 to 100 |  |  |
| C=C(F)C(=O)N1CC[C@H](n2nnc3c(O[C@@H](C)[C@@H]4CCCN4C)nc4c(F)c(-c5c(C)ncc6ccccc56)c(C)cc4c32)C[C@H]1CC#N (single isomer, unassigned) [Example 23b] |  | ≤ 50 | ≤ 50 | ≤ 50 |
| COC/C=C/C(=O)N1CC[C@H](n2nnc3c(O[C@@H](C)[C@@H]4CCCN4C)nc4c(F)c(-c5c(C)ncc6ccccc56)c(C)cc4c32)C[C@H]1CC#N (single isomer, unassigned) [Example 24a] |  | ≤ 50 | 50 to 100 |  |
| C=C(F)C(=O)N1CC[C@H](n2nnc3c(O[C@@H](C)[C@@H]4CCCN4C)nc4c(F)c(-c5c(F)ccc6ccc(C)nc56)c(C)cc4c32)C[C@H]1CC#N (single isomer, unassigned) [Example 25b] | ≤ 50 | ≤ 50 |  |  |
| C=CC(=O)N1CC[C@H](n2nnc3c(O[C@@H](C)[C@@H]4CCCN4C)nc4c(F)c(-c5cccc6c5c(CC#N)nn6C)c(C)cc4c32)C[C@H]1C (single isomer, unassigned) [Example 28a] |  | 100 to 1000 |  |  |
| C=CC(=O)N1CC[C@H](n2nnc3c(O[C@@H](C)[C@@H]4CCCN4C)nc4c(F)c(-c5cccc6c5c(CC#N)cn6C)c(C)cc4c32)C[C@H]1C (single isomer, unassigned) [Example 31a] |  | 100 to 1000 |  |  |
| C=CC(=O)N1CCC(n2nnc3c(O[C@@H](C)[C@@H]4CCCN4C)nc4c(F)c(-c5cccc6c5c(CC#N)cn6C)c(C)cc4c32)CC1 (single isomer, unassigned) [Example 32a] |  | 50 to 100 |  |  |
| C=C(F)C(=O)N1CC[C@H](n2nnc3c(N4CC(C)(N(C)CC)C4)nc4c(F)c(-c5c(C)c(C)cc6[nH]ncc56)c(Cl)cc4c32)C[C@H]1CC#N (single isomer, unassigned) [Example 33b] |  | 100 to 1000 |  |  |
| COC/C=C/C(=O)N1CC[C@H](n2nnc3c(O[C@@H](C)[C@@H]4CCCN4C)nc4c(F)c(-c5c(F)cccc5OC)c(C)cc4c32)C[C@H]1CC#N (single isomer, unassigned) [Example 34a] |  | ≤ 50 | ≤ 50 |  |
| C=C(F)C(=O)N1CC[C@H](n2nnc3c(N4CC(C)(N(C)CC)C4)nc4c(F)c(-c5c(C)c(F)cc6[nH]ncc56)c(Cl)cc4c32)C[C@H]1CC#N (single isomer, unassigned) [Example 35b] |  | 100 to 1000 |  |  |
